# Reference: US6599932B1, “Alpha, beta-unsaturated sulfones for treating proliferative disorders” (Temple University-Of The Commonwealth System of Higher …, priority 2000, dated 2003)
# Key:
# Type in all cases: cell-based
# Design in all cases: dose or concentration left out as unconfirmed
# [1] = system: breast tumor cell line BT-20; experiment: Viability assay, Trypan blue exclusion, breast tumor cell line BT-20; conditions: for cytotoxicity: Homo sapiens, BT-20, 96 hours, read-out: percent cell death (% Death), BT20; for percent cell death (% Death), BT20: 96 hours
# Procedure: (§1) The effect of the sulfones on normal fibroblasts and on tumor cells of prostate, colon, lung and breast origin was examined utilizing the following cell lines: prostate tumor cell line DU-145; colorectal carcinoma cell line DLD-1; non-small cell lung carcinoma cell line H157; and breast tumor cell line BT-20. BT-20 is an estrogen-unresponsive cell line. NIH/3T3 and HFL are normal murine and human fibroblasts, respectively. BT-20, DLD-1 and H157 were grown in Dulbecco's modified Eagle's medium (DMEM) containing 10% fetal bovine serum supplemented with penicillin and streptomycin. DU145 was cultured in RPMI with 10% fetal bovine serum containing penicillin and streptomycin. NIH3T3 and HFL cells were grown in DMEM containing 10% calf serum supplemented with penicillin and streptomycin. All cell cultures were maintained at 37° C. in a humidified atmosphere of 5% CO2.
# (§2) Cells were treated with test compound […] concentration and cell viability was determined after 96 hours by the Trypan blue exclusion method. Activity for each compound is reported as a range of cell induced death (% Death) with the lowest activity in the range of 5-10%.
# [2] = system: non-small cell lung carcinoma cell line H157; experiment: Viability assay, Trypan blue exclusion, non-small cell lung carcinoma cell line H157; conditions: for cytotoxicity: Homo sapiens, NCI-H157, 96 hours, read-out: percent cell death (% Death), H157; for percent cell death (% Death), H157: 96 hours
# Procedure: as §1, §2
# [3] = system: prostate tumor cell line DU-145; experiment: Viability assay, Trypan blue exclusion, prostate tumor cell line DU-145; conditions: for cytotoxicity: Homo sapiens, DU-145, 96 hours, read-out: percent cell death (% Death), DU145; for percent cell death (% Death), DU145: 96 hours
# Procedure: as §1, §2
# [4] = system: colorectal carcinoma cell line DLD-1; experiment: Viability assay, Trypan blue exclusion, colorectal carcinoma cell line DLD-1; conditions: for cytotoxicity: Homo sapiens, DLD-1, 96 hours, read-out: percent cell death (% Death), DLD-1; for percent cell death (% Death), DLD-1: 96 hours
# Procedure: as §1, §2
SMILES,cytotoxicity [1] [%],cytotoxicity [2] [%],cytotoxicity [3] [%],cytotoxicity [4] [%],"percent cell death (% Death), BT20 [1]","percent cell death (% Death), H157 [2]","percent cell death (% Death), DU145 [3]","percent cell death (% Death), DLD-1 [4]"
"COc1ccc(CS(=O)(=O)/C=C/c2csc([N+](=O)[O-])c2)cc1 [Example 58, (E)-2-Nitro-4-thiopheneethenyl-4-methoxybenzylsulfone]",40 to 50,> 80,50 to 60,> 80,–,–,–,–
"O=S(=O)(/C=C/c1ccoc1)Cc1ccc(I)cc1 [Example 44, (E)-3-Furanethenyl-4-iodobenzylsulfone]",> 80,> 80,> 80,> 80,–,–,–,–
"O=S(=O)(/C=C/c1ccoc1)Cc1ccc(Br)cc1 [Example 43, (E)-3-Furanethenyl-4-bromobenzylsulfone]",> 80,> 80,> 80,> 80,–,–,–,–
"O=S(=O)(/C=C/c1ccccn1)Cc1ccc(Br)cc1 [Example 7, (E)-2-Pyridineethenyl-4-bromobenzylsulfone]",5 to 10,5 to 10,5 to 10,5 to 10,–,–,–,–
"O=S(=O)(/C=C/c1ccc(Br)s1)Cc1ccc(Br)cc1 [Example 18, (E)-5-Bromo-2-thiopheneethenyl4-bromobenzylsulfone]",5 to 10,5 to 10,5 to 10,5 to 10,–,–,–,–
"O=S(=O)(/C=C/c1cccnc1)Cc1ccc(Br)cc1 [Example 8, (E)-3-Pyridineethenyl-4-bromobenzylsulfone]",10 to 15,10 to 15,10 to 15,10 to 15,–,–,–,–
"N#Cc1ccc(CS(=O)(=O)/C=C/c2ccoc2)cc1 [Example 50, (E)-3-Furanethenyl-4-cyanobenzylsulfone]",5 to 10,5 to 10,5 to 10,5 to 10,–,–,–,–
"O=S(=O)(/C=C/c1ccncc1)Cc1ccc(Br)cc1 [Example 9, (E)-4-Pyridineethenyl-4-bromobenzylsulfone]",5 to 10,5 to 10,5 to 10,5 to 10,–,–,–,–
"O=S(=O)(/C=C/c1cc(Br)cs1)Cc1ccc(Cl)cc1 [Example 14, (E)-4-Bromo-2-thiopheneethenyl-4-chlorobenzylsulfone]",5 to 10,5 to 10,5 to 10,5 to 10,–,–,–,–
"O=S(=O)(/C=C/c1cccs1)Cc1ccc(Br)cc1 [Example 12, (E)-2-Thiopheneethenyl-4-bromobenzylsulfone]",5 to 10,5 to 10,5 to 10,5 to 10,–,–,–,–
"O=S(=O)(/C=C/c1ccsc1)Cc1ccc(Br)cc1 [Example 24, (E)-3-Thiopheneethenyl-4-bromobenzylsulfone]",40 to 50,40 to 50,40 to 50,40 to 50,–,–,–,–
"O=S(=O)(/C=C/c1cccc2ccccc12)Cc1ccc(Br)cc1 [Example 66, (E)-1-Naphthaleneethenyl-4-bromobenzylsulfone]",10 to 15,10 to 15,10 to 15,10 to 15,–,–,–,–
"O=[N+]([O-])c1cc(/C=C/S(=O)(=O)Cc2ccc(Cl)cc2)cs1 [Example 55, (E)-2-Nitro-4-thiopheneethenyl-4-chlorobenzylsulfone]",5 to 10,5 to 10,10 to 15,50 to 60,–,–,–,–
"O=[N+]([O-])c1ccc(CS(=O)(=O)/C=C/c2ccsc2)cc1 [Example 32, (E)-3-Thiopheneethenyl4-nitrobenzylsulfone]",5 to 10,5 to 10,5 to 10,5 to 10,–,–,–,–
"O=S1(=O)C=CC(/C=C/S(=O)(=O)Cc2ccc(Cl)cc2)=C1 [Example 34, (E)-3-Thiophene-1,1-dioxoethenyl-4chlorobenzylsulfone]",–,–,–,–,+ ((+)=5-10%),+ ((+)=5-10%),+ ((+)=5-10%),+ ((+)=5-10%)
"O=S(=O)(/C=C/c1ccc(F)cc1)Cc1cccc2ccccc12 [Example 68, (E)-4-Fluorostyryl-1-(naphthylmethyl)sulfone]",5 to 10,5 to 10,5 to 10,5 to 10,–,–,–,–
"O=S(=O)(/C=C/c1ccc(Br)s1)Cc1ccc(Cl)cc1 [Example 17, (E)-5-Bromo-2-thiopheneethenyl-4-chlorobenzylsulfone]",5 to 10,5 to 10,5 to 10,5 to 10,–,–,–,–

SMILES,cytotoxicity [1] [%],cytotoxicity [2] [%],cytotoxicity [3] [%],cytotoxicity [4] [%],"percent cell death (% Death), BT20 [1]","percent cell death (% Death), H157 [2]","percent cell death (% Death), DU145 [3]","percent cell death (% Death), DLD-1 [4]"
"O=S(=O)(/C=C/c1ccncc1)Cc1ccc(Cl)cc1 [Example 6, (E)4-Pyridineethenyl4-chlorobenzylsulfone]",5 to 10,5 to 10,5 to 10,5 to 10,–,–,–,–
"O=S(=O)(/C=C/c1ccsc1)Cc1ccc(Cl)c(Cl)c1 [Example 30, (E)-3-Thiopheneethenyl-3,4-dichlorobenzylsulfone]",5 to 10,5 to 10,5 to 10,5 to 10,–,–,–,–
"O=S1(=O)C=CC(/C=C/S(=O)(=O)Cc2ccc(F)cc2)=C1 [Example 33, (E)-3-Thiophene-1,1-dioxoethenyl-4-fluorobenzylsulfone]",–,–,–,–,+ ((+)=5-10%),+ ((+)=5-10%),+ ((+)=5-10%),+ ((+)=5-10%)
"O=[N+]([O-])c1ccc(/C=C/S(=O)(=O)Cc2cccc3ccccc23)cc1 [Example 73, (E)-4-Nitrostyryl-1-(naphthylmethyl)sulfone]",5 to 10,10 to 15,5 to 10,5 to 10,–,–,–,–
"O=S(=O)(/C=C/c1ccsc1)Cc1ccc(Cl)cc1Cl [Example 29, (E)-3-Thiopheneethenyl-2,4-dichlorobenzylsulfone]",50 to 60,50 to 60,50 to 60,50 to 60,–,–,–,–
"O=S(=O)(/C=C/c1cccs1)Cc1ccc(Cl)cc1 [Example 11, (E)-2-Thiopheneethenyl4-chlorobenzylsulfone]",5 to 10,5 to 10,5 to 10,5 to 10,–,–,–,–
"O=S(=O)(/C=C/c1cccc2ccccc12)Cc1ccc(F)cc1 [Example 62, (E)-1-Naphthaleneethenyl-4-fluorobenzylsulfone]",5 to 10,5 to 10,5 to 10,5 to 10,–,–,–,–
"O=S(=O)(/C=C/c1ccsc1)Cc1ccc(OC(F)(F)F)cc1 [Example 28, (E)-3-Thiopheneethenyl-4-trifloromethoxylbenzylsulfone]",–,–,–,–,+ ((+)=5-10%),+ ((+)=5-10%),+ ((+)=5-10%),+ ((+)=5-10%)
"O=S(=O)(/C=C/c1ccsc1)Cc1ccc(I)cc1 [Example 25, (E)-3-Thiopheneethenyl-4-iodobenzylsulfone]",10 to 15,10 to 15,10 to 15,10 to 15,–,–,–,–
"O=S(=O)(/C=C/c1ccsc1)Cc1ccc(F)cc1 [Example 22, (E)-3-Thiopheneethenyl-4-fluorobenzylsulfone]",5 to 10,5 to 10,5 to 10,5 to 10,–,–,–,–
"O=[N+]([O-])c1ccc(CS(=O)(=O)/C=C/c2ccoc2)cc1 [Example 51, (E)-3-Furanethenyl-4-nitrobenzylsulfone]",5 to 10,5 to 10,5 to 10,5 to 10,–,–,–,–
"O=S(=O)(/C=C/c1ccoc1)Cc1ccc(Cl)cc1 [Example 42, (E)-3-Furanethenyl-4-chlorobenzylsulfone]",> 80,> 80,> 80,> 80,–,–,–,–
"O=S(=O)(/C=C/c1ccoc1)Cc1ccc(Cl)c(Cl)c1 [Example 49, (E)-3-Furanethenyl-3,4-dichlorobenzylsulfone]",50 to 60,50 to 60,> 80,50 to 60,–,–,–,–
"O=S(=O)(/C=C/c1cc(Br)cs1)Cc1ccc(F)cc1 [Example 13, (E)-4-Bromo-2-thiopheneethenyl-4-fluorobenzylsulfone]",5 to 10,5 to 10,5 to 10,5 to 10,–,–,–,–
"COc1ccc(CS(=O)(=O)/C=C/c2ccoc2)cc1 [Example 46, (E)-3-Furanethenyl-4-methoxybenzylsulfone]",> 80,> 80,> 80,> 80,–,–,–,–
"O=S1(=O)C=CC(/C=C/S(=O)(=O)Cc2ccc(Br)cc2)=C1 [Example 35, (E)-3-Thiophene-1,1-dioxoethenyl-4-bromobenzylsulfone]",–,–,–,–,+ ((+)=5-10%),+ ((+)=5-10%),+ ((+)=5-10%),+ ((+)=5-10%)
